# Results taken from the supplement of paper PMC10307832.
# Key:
# Test in all cases: relative viability (nuclei count vs DMSO), 5 days (fraction); higher = more cells survive
# 201T = tested on: 201T
# Procedure, shortened: (§1)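 For relative viability, nuclei counts in treated wells were divided by those in vehicle wells. Lung cancer cell lines had been pin-tool dosed in 1536-well plates the day after seeding and cultured for 5 days, then fixed and stained in one step (final 0.05% Triton X-100, 1% formaldehyde, 1 ug/ml Hoechst) and imaged at 4×. Doses were one drug alone or a fixed anchor-drug dose plus five library-drug doses (not always all listed) in √10 steps, and values are duplicate-plate medians.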
# COR-L 105 = tested on: COR-L 105
# Procedure, shortened: as §1
# ChaGo-K-1 = tested on: ChaGo-K-1
# Procedure, shortened: as §1
# EPLC-272H = tested on: EPLC-272H
# Procedure, shortened: as §1
# H3255 = tested on: H3255
# Procedure, shortened: as §1
# HCC-78 = tested on: HCC-78
# Procedure, shortened: as §1
# HCC-827 = tested on: HCC-827
# Procedure, shortened: as §1
# LC-2-ad = tested on: LC-2-ad
# Procedure, shortened: as §1
# LCLC-97TM1 = tested on: LCLC-97TM1
# Procedure, shortened: as §1
# NCI-H1666 = tested on: NCI-H1666
# Procedure, shortened: as §1
# NCI-H1915 = tested on: NCI-H1915
# Procedure, shortened: as §1
# NCI-H2087 = tested on: NCI-H2087
# Procedure, shortened: as §1
# NCI-H2126 = tested on: NCI-H2126
# Procedure, shortened: as §1
# NCI-H2347 = tested on: NCI-H2347
# Procedure, shortened: as §1
# NCI-H23 = tested on: NCI-H23
# Procedure, shortened: as §1
# NCI-H2405 = tested on: NCI-H2405
# Procedure, shortened: as §1
# NCI-H322M = tested on: NCI-H322M
# Procedure, shortened: as §1
# NCI-H520 = tested on: NCI-H520
# Procedure, shortened: as §1
# NCI-H647 = tested on: NCI-H647
# Procedure, shortened: as §1
# PC-14 = tested on: PC-14
# Procedure, shortened: as §1
# RERF-LC-KJ = tested on: RERF-LC-KJ
# Procedure, shortened: as §1
structure (smiles),measurement,setting,value
C[C@@H]1CN(CC(=O)Nc2ccc3c(c2)Cc2cccc(-c4cc(=O)cc(N5CCOCC5)o4)c2S3)C[C@H](C)O1 + CC1(C)CCC(c2ccc(Cl)cc2)=C(CN2CCN(c3ccc(C(=O)NS(=O)(=O)c4ccc(N[C@H](CCN5CCOCC5)CSc5ccccc5)c(S(=O)(=O)C(F)(F)F)c4)cc3)CC2)C1 [Navitoclax] (partner 0.5 µM),relative viability,201T; first compound 0.04 µM,1.21
same,relative viability,201T; first compound 0.1265 µM,1.2
same,relative viability,201T; first compound 0.4 µM,1.19
same,relative viability,201T; first compound 4 µM,1.14
same,relative viability,COR-L 105; first compound 0.04 µM,1.01
same,relative viability,COR-L 105; first compound 0.1265 µM,0.801
same,relative viability,COR-L 105; first compound 0.4 µM,0.728
same,relative viability,COR-L 105; first compound 4 µM,0.686
same,relative viability,ChaGo-K-1; first compound 0.1265 µM,0.933
same,relative viability,ChaGo-K-1; first compound 0.4 µM,0.956
same,relative viability,ChaGo-K-1; first compound 4 µM,0.936
same,relative viability,EPLC-272H; first compound 0.04 µM,1.09
same,relative viability,EPLC-272H; first compound 0.1265 µM,0.935
same,relative viability,EPLC-272H; first compound 0.4 µM,1.11
same,relative viability,EPLC-272H; first compound 4 µM,0.911
same,relative viability,H3255; first compound 0.04 µM,0.475
same,relative viability,H3255; first compound 0.1265 µM,0.411
same,relative viability,H3255; first compound 0.4 µM,0.463
same,relative viability,H3255; first compound 4 µM,0.518
same,relative viability,HCC-78; first compound 0.04 µM,0.668
same,relative viability,HCC-78; first compound 0.1265 µM,0.706
same,relative viability,HCC-78; first compound 0.4 µM,0.69
same,relative viability,HCC-78; first compound 4 µM,0.914
same,relative viability,HCC-827; first compound 0.04 µM,0.931
same,relative viability,HCC-827; first compound 0.1265 µM,0.944
same,relative viability,HCC-827; first compound 0.4 µM,1.04
same,relative viability,HCC-827; first compound 4 µM,1.03
same,relative viability,LC-2-ad; first compound 0.04 µM,0.587
same,relative viability,LC-2-ad; first compound 0.1265 µM,0.46
same,relative viability,LC-2-ad; first compound 0.4 µM,0.336
same,relative viability,LC-2-ad; first compound 4 µM,0.29
same,relative viability,LCLC-97TM1; first compound 0.1265 µM,0.645
same,relative viability,LCLC-97TM1; first compound 0.4 µM,0.279
same,relative viability,LCLC-97TM1; first compound 4 µM,0.318
same,relative viability,NCI-H1666; first compound 0.04 µM,1.14
same,relative viability,NCI-H1666; first compound 0.1265 µM,1.12
same,relative viability,NCI-H1666; first compound 0.4 µM,0.862
same,relative viability,NCI-H1666; first compound 4 µM,0.781
same,relative viability,NCI-H1915; first compound 0.04 µM,0.792
same,relative viability,NCI-H1915; first compound 0.1265 µM,0.789
same,relative viability,NCI-H1915; first compound 0.4 µM,0.796
same,relative viability,NCI-H1915; first compound 4 µM,0.753
same,relative viability,NCI-H2087; first compound 0.04 µM,0.971
same,relative viability,NCI-H2087; first compound 0.1265 µM,1.1
same,relative viability,NCI-H2087; first compound 0.4 µM,0.909
same,relative viability,NCI-H2087; first compound 4 µM,0.923
same,relative viability,NCI-H2126; first compound 0.04 µM,0.879
same,relative viability,NCI-H2126; first compound 0.1265 µM,0.868
same,relative viability,NCI-H2126; first compound 0.4 µM,0.808
same,relative viability,NCI-H2126; first compound 4 µM,0.851
same,relative viability,NCI-H2347; first compound 0.04 µM,0.768
same,relative viability,NCI-H2347; first compound 0.1265 µM,0.81
same,relative viability,NCI-H2347; first compound 0.4 µM,0.769
same,relative viability,NCI-H2347; first compound 4 µM,0.672
same,relative viability,NCI-H23; first compound 0.04 µM,1
same,relative viability,NCI-H23; first compound 0.1265 µM,1.03
same,relative viability,NCI-H23; first compound 0.4 µM,0.708
same,relative viability,NCI-H23; first compound 4 µM,0.668
same,relative viability,NCI-H2405; first compound 0.04 µM,1.02
same,relative viability,NCI-H2405; first compound 0.1265 µM,1.1
same,relative viability,NCI-H2405; first compound 0.4 µM,0.866
same,relative viability,NCI-H2405; first compound 4 µM,0.872
same,relative viability,NCI-H322M; first compound 0.04 µM,1.17
same,relative viability,NCI-H322M; first compound 0.1265 µM,1.18
same,relative viability,NCI-H322M; first compound 0.4 µM,1.23
same,relative viability,NCI-H322M; first compound 4 µM,1.12
same,relative viability,NCI-H520; first compound 0.04 µM,1.2
same,relative viability,NCI-H520; first compound 0.1265 µM,1.03
same,relative viability,NCI-H520; first compound 0.4 µM,0.888
same,relative viability,NCI-H520; first compound 4 µM,1.08
same,relative viability,NCI-H647; first compound 0.04 µM,0.989
same,relative viability,NCI-H647; first compound 0.1265 µM,1.09
same,relative viability,NCI-H647; first compound 0.4 µM,1.09
same,relative viability,NCI-H647; first compound 4 µM,0.591
same,relative viability,PC-14; first compound 0.04 µM,1.04
same,relative viability,PC-14; first compound 0.1265 µM,0.987
same,relative viability,PC-14; first compound 0.4 µM,1.01
same,relative viability,PC-14; first compound 4 µM,0.797
same,relative viability,RERF-LC-KJ; first compound 0.04 µM,0.736
same,relative viability,RERF-LC-KJ; first compound 0.1265 µM,1.12
same,relative viability,RERF-LC-KJ; first compound 0.4 µM,1.16
same,relative viability,RERF-LC-KJ; first compound 4 µM,0.713
CC(C)Oc1cc(Nc2nc(N[C@@H](C)c3ccc(F)cn3)ncc2Cl)n[nH]1 [AZ23] + CC1(C)CCC(c2ccc(Cl)cc2)=C(CN2CCN(c3ccc(C(=O)NS(=O)(=O)c4ccc(N[C@H](CCN5CCOCC5)CSc5ccccc5)c(S(=O)(=O)C(F)(F)F)c4)cc3)CC2)C1 [Navitoclax] (partner 0.5 µM),relative viability,201T; first compound 0.01 µM,1.23
same,relative viability,201T; first compound 0.03162 µM,1.22
same,relative viability,201T; first compound 0.3162 µM,1.17
same,relative viability,COR-L 105; first compound 0.01 µM,0.543
same,relative viability,COR-L 105; first compound 0.03162 µM,0.869
same,relative viability,COR-L 105; first compound 0.3162 µM,0.736
same,relative viability,ChaGo-K-1; first compound 0.01 µM,0.782
same,relative viability,ChaGo-K-1; first compound 0.03162 µM,1.23
same,relative viability,ChaGo-K-1; first compound 0.3162 µM,0.949
same,relative viability,EPLC-272H; first compound 0.01 µM,1.3
same,relative viability,EPLC-272H; first compound 0.03162 µM,1.16
same,relative viability,H3255; first compound 0.01 µM,0.514
same,relative viability,H3255; first compound 0.03162 µM,0.677
same,relative viability,H3255; first compound 0.3162 µM,0.556
same,relative viability,HCC-78; first compound 0.01 µM,0.617
same,relative viability,HCC-78; first compound 0.03162 µM,0.662
same,relative viability,HCC-78; first compound 0.3162 µM,0.488
same,relative viability,HCC-827; first compound 0.01 µM,1
same,relative viability,HCC-827; first compound 0.03162 µM,1.04
same,relative viability,HCC-827; first compound 0.3162 µM,0.991
same,relative viability,LC-2-ad; first compound 0.01 µM,0.386
same,relative viability,LC-2-ad; first compound 0.03162 µM,0.474
same,relative viability,LC-2-ad; first compound 0.3162 µM,0.415
same,relative viability,LCLC-97TM1; first compound 0.01 µM,0.381
same,relative viability,LCLC-97TM1; first compound 0.03162 µM,0.364
same,relative viability,LCLC-97TM1; first compound 0.3162 µM,0.603
same,relative viability,NCI-H1666; first compound 0.01 µM,0.79
same,relative viability,NCI-H1666; first compound 0.03162 µM,0.827
same,relative viability,NCI-H1666; first compound 0.3162 µM,1
same,relative viability,NCI-H1915; first compound 0.01 µM,0.799
same,relative viability,NCI-H1915; first compound 0.03162 µM,0.845
same,relative viability,NCI-H1915; first compound 0.3162 µM,0.797
same,relative viability,NCI-H2087; first compound 0.01 µM,1.14
same,relative viability,NCI-H2087; first compound 0.03162 µM,1.12
same,relative viability,NCI-H2087; first compound 0.3162 µM,0.914
same,relative viability,NCI-H2126; first compound 0.01 µM,0.835
same,relative viability,NCI-H2126; first compound 0.03162 µM,0.924
same,relative viability,NCI-H2126; first compound 0.3162 µM,0.774
same,relative viability,NCI-H2347; first compound 0.01 µM,0.858
same,relative viability,NCI-H2347; first compound 0.03162 µM,0.755
same,relative viability,NCI-H2347; first compound 0.3162 µM,0.818
same,relative viability,NCI-H23; first compound 0.03162 µM,0.981
same,relative viability,NCI-H23; first compound 0.3162 µM,0.69
same,relative viability,NCI-H2405; first compound 0.01 µM,0.8
same,relative viability,NCI-H2405; first compound 0.03162 µM,0.915
same,relative viability,NCI-H2405; first compound 0.3162 µM,0.781
same,relative viability,NCI-H322M; first compound 0.01 µM,1.24
same,relative viability,NCI-H322M; first compound 0.03162 µM,1.09
same,relative viability,NCI-H322M; first compound 0.3162 µM,1.29
same,relative viability,NCI-H520; first compound 0.01 µM,0.972
same,relative viability,NCI-H520; first compound 0.03162 µM,1.31
same,relative viability,NCI-H520; first compound 0.3162 µM,1.08
same,relative viability,NCI-H647; first compound 0.01 µM,1.46
same,relative viability,NCI-H647; first compound 0.03162 µM,1.51
same,relative viability,NCI-H647; first compound 0.3162 µM,1.24
same,relative viability,PC-14; first compound 0.01 µM,0.989
same,relative viability,PC-14; first compound 0.03162 µM,1.21
same,relative viability,PC-14; first compound 0.3162 µM,1.1
same,relative viability,RERF-LC-KJ; first compound 0.01 µM,0.719
same,relative viability,RERF-LC-KJ; first compound 0.03162 µM,1.15
same,relative viability,RERF-LC-KJ; first compound 0.3162 µM,0.879
